Key:
Conditions in all cases: Compound concentration 1000.0 nM
[1] = target: Serine/threonine-protein kinase MARK1 (Homo sapiens) (UniProt Q9P0L2)
[2] = target: Cyclin-dependent kinase 15 (Homo sapiens) (UniProt Q96Q40)
[3] = target: T1, Tyrosine-protein kinase Mer (Homo sapiens) (UniProt Q12866)
T1 sequence (whole entry): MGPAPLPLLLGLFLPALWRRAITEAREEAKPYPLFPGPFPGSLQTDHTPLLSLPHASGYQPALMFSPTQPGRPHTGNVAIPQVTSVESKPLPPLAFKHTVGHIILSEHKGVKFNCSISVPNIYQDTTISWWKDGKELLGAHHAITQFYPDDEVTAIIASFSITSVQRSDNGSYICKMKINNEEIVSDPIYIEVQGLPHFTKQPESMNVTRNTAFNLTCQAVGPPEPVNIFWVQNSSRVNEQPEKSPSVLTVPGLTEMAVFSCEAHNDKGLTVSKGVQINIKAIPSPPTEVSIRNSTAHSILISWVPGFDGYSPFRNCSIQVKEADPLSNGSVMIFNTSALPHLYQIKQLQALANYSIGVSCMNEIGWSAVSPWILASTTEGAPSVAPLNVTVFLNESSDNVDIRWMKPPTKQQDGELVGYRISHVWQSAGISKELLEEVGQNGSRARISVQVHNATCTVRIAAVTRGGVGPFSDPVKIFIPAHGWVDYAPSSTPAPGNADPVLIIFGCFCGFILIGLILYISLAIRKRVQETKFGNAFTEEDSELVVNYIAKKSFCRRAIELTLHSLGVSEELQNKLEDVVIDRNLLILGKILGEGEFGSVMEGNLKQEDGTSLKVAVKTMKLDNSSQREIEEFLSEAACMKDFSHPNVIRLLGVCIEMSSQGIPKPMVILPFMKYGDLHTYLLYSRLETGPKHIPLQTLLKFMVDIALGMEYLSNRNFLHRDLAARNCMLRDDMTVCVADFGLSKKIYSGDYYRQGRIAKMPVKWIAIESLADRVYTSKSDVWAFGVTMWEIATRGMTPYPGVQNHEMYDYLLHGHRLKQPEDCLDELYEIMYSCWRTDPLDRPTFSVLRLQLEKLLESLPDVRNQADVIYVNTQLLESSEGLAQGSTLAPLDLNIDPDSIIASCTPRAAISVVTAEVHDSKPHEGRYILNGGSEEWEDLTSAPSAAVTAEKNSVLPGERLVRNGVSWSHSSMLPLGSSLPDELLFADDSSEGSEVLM

[4] = target: Tyrosine-protein kinase ABL2 (Homo sapiens) (UniProt P42684)
[5] = target: Phosphatidylinositol 3-kinase catalytic subunit type 3 (Homo sapiens) (UniProt Q8NEB9)
[6] = target: NT-3 growth factor receptor (Homo sapiens) (UniProt Q16288)
[7] = target: Mitogen-activated protein kinase 6 (Homo sapiens) (UniProt Q16659)
[8] = target: T2, Serine/threonine-protein kinase ULK3 (Homo sapiens) (UniProt Q6PHR2)
T2 sequence (whole entry): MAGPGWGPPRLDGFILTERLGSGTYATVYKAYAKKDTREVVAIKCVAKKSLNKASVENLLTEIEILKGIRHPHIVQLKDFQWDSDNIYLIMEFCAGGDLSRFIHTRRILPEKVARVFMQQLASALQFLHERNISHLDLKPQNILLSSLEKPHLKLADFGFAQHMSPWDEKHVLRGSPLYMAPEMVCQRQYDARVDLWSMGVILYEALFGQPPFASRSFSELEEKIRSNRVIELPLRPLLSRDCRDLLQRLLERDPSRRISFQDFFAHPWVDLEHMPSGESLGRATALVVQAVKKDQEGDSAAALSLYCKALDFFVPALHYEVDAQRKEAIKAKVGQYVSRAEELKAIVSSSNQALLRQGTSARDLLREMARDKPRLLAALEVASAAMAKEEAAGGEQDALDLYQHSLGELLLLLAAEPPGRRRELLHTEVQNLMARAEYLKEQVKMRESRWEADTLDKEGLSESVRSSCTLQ

[9] = target: T3, Serine/threonine-protein kinase 17A (Homo sapiens) (UniProt Q9UEE5)
T3 sequence (whole entry): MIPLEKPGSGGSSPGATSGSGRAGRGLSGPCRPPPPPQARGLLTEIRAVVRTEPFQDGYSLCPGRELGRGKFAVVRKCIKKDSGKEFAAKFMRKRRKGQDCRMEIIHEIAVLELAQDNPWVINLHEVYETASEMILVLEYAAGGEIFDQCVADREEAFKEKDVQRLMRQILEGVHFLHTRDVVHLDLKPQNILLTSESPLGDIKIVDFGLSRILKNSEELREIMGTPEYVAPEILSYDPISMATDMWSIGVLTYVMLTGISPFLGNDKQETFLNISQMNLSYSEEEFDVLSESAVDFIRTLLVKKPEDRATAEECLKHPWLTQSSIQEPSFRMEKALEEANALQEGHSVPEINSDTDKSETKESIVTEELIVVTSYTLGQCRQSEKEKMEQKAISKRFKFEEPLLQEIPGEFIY

[10] = target: Tyrosine-protein kinase receptor UFO (Homo sapiens) (UniProt P30530)
Sequence of Tyrosine-protein kinase receptor UFO (Homo sapiens) (P30530 whole entry): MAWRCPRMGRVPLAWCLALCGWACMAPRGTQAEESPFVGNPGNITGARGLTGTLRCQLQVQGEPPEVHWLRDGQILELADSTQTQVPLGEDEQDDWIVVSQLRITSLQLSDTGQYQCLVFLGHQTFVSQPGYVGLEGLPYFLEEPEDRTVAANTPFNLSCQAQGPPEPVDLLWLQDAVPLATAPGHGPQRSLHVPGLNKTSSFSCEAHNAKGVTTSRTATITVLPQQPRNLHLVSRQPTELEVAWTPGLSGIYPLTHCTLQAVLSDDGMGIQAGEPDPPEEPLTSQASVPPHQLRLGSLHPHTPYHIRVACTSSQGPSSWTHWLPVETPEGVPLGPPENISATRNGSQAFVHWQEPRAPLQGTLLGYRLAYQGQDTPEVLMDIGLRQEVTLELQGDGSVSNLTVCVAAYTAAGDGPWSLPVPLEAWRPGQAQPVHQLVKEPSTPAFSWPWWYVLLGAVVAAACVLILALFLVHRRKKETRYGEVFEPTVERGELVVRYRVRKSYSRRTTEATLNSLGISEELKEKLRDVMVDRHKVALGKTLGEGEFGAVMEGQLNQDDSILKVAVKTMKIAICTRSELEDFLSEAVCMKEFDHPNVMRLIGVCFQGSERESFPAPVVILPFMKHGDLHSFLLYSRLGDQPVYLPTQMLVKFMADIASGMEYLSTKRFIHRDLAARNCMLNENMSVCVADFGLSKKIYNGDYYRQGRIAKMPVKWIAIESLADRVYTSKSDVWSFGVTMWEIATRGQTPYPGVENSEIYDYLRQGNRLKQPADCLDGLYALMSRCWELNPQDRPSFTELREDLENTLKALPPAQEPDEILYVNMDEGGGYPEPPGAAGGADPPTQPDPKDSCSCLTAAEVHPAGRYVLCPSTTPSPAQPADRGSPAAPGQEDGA

Sequence of Mitogen-activated protein kinase 6 (Homo sapiens) (Q16659 whole entry): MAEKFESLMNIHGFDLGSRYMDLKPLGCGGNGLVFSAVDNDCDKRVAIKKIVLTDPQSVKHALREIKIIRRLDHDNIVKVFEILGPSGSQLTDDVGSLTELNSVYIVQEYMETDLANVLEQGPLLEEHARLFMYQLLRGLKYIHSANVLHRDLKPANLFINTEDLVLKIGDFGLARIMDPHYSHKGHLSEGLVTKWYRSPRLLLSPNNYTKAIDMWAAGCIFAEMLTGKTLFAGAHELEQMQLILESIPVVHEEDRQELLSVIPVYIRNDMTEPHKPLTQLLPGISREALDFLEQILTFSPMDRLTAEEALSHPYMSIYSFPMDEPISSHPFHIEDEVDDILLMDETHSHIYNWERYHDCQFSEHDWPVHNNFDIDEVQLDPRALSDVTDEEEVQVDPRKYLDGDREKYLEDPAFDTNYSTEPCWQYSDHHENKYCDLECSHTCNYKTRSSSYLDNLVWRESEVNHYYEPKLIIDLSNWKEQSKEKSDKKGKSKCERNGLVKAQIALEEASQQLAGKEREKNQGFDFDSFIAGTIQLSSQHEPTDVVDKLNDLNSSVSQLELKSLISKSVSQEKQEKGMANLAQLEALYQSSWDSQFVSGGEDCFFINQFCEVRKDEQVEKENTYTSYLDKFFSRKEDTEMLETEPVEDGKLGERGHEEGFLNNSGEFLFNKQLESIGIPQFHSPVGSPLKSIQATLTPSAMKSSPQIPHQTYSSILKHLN
Sequence of Phosphatidylinositol 3-kinase catalytic subunit type 3 (Homo sapiens) (Q8NEB9 whole entry): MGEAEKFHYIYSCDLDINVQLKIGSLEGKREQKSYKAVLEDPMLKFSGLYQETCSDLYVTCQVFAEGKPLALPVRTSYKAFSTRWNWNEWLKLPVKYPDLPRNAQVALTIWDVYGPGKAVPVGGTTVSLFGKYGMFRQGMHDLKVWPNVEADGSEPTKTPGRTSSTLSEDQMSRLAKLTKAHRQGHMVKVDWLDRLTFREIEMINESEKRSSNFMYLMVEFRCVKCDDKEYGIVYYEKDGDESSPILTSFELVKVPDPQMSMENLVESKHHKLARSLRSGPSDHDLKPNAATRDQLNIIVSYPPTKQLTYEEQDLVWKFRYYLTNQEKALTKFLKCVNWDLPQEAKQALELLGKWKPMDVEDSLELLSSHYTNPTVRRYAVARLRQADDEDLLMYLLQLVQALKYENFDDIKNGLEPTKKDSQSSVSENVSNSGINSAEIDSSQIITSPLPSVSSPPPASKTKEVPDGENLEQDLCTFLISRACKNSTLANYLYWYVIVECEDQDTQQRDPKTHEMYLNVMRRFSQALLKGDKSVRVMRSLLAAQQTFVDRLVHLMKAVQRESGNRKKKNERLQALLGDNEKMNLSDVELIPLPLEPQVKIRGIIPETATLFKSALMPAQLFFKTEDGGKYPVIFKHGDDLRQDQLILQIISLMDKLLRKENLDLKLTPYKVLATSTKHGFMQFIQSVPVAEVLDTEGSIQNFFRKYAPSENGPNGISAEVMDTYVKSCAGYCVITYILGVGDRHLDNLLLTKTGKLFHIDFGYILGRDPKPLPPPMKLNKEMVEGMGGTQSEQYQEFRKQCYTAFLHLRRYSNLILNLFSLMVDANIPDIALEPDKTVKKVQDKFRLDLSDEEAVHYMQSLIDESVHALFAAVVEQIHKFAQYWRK
Sequence of Cyclin-dependent kinase 15 (Homo sapiens) (Q96Q40 whole entry): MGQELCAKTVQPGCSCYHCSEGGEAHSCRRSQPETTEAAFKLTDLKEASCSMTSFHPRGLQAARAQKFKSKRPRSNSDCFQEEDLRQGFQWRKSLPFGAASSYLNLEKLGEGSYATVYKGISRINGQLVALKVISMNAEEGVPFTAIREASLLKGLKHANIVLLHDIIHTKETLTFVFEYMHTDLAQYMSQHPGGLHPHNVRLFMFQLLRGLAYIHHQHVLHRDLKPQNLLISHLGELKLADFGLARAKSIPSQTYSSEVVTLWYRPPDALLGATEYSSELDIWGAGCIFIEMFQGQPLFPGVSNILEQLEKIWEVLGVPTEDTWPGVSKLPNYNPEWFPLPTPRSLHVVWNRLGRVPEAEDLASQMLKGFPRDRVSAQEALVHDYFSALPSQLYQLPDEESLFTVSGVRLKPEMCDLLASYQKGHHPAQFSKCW
Sequence of Tyrosine-protein kinase ABL2 (Homo sapiens) (P42684 whole entry): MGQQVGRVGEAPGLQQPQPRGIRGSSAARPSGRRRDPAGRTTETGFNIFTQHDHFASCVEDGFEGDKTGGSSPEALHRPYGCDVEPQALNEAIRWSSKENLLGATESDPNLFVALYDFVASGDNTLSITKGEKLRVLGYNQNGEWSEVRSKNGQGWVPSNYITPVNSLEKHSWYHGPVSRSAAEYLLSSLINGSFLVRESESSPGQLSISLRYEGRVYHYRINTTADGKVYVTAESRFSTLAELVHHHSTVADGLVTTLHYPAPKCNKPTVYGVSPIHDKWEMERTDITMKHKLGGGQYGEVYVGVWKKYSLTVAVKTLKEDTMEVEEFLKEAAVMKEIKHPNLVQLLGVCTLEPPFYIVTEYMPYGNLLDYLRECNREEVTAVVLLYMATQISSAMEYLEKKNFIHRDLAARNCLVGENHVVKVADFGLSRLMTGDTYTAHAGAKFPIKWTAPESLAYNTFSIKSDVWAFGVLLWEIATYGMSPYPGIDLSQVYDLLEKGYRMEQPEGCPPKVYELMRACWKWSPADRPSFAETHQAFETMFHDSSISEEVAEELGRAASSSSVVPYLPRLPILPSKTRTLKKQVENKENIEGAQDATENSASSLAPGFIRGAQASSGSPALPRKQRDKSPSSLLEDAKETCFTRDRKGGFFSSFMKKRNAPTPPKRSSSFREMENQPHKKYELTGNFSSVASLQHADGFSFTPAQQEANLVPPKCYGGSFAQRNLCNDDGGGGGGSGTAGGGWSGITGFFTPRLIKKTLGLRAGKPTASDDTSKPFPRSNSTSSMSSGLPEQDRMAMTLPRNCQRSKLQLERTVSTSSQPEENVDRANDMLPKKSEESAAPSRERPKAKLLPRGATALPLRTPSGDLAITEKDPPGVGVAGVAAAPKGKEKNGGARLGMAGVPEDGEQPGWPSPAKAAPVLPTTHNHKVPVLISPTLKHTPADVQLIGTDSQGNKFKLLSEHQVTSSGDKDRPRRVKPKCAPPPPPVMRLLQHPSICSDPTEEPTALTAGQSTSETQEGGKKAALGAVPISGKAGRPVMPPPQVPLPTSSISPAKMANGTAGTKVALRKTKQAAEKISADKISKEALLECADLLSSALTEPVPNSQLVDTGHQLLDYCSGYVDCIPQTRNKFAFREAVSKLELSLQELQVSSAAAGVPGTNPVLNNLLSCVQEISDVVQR
Sequence of Serine/threonine-protein kinase MARK1 (Homo sapiens) (Q9P0L2 whole entry, looked up): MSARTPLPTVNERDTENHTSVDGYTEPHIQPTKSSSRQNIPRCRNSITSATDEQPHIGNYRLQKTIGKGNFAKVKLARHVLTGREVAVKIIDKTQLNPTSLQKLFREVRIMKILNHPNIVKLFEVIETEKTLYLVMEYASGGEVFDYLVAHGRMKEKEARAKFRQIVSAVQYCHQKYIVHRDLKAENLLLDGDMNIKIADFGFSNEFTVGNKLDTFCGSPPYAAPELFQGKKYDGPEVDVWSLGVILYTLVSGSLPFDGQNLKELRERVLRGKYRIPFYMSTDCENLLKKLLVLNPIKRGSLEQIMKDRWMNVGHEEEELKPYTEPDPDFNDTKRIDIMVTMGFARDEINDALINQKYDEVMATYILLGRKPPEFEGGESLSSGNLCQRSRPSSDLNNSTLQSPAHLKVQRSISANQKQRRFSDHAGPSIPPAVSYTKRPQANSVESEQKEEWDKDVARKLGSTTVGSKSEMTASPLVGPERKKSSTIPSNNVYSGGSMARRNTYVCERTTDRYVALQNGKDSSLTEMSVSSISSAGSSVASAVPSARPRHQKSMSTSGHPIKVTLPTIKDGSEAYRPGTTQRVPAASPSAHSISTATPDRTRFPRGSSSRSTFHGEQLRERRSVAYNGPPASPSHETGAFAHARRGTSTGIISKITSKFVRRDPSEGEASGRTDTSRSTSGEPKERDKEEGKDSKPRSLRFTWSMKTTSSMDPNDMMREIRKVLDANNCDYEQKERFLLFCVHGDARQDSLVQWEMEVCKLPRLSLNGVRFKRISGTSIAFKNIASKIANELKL

SMILES | residual activity [1] | residual activity [2] | residual activity [3] | residual activity [4] | residual activity [5] | residual activity [6] | residual activity [7] | residual activity [8] | residual activity [9] | residual activity [10]
CCc1ccccc1C(=O)Nc1n[nH]c2c(C)c(F)c(C3C(C#N)=C(C)N(C)C(C)=C3C#N)cc12 [BAY-3827] | 36% | 95% | 80% | 92% | 100% | 100% | 100% | 82% | 89% | 100%
CC1=C(C#N)C(c2ccc3c(c2)c(NC(=O)c2ccccc2C)nn3C)C(C#N)=C(C)N1 [BAY-974] | 100% | 100% | 100% | 99% | 87% | 83% | 97% | 84% | 82% | 100%

Reference: ChEMBL document CHEMBL4507319 (2021)
